According to patent US20140220110A1, “REMOTE LOADING OF SPARINGLY WATER-SOLUBLE DRUGS INTO LIPOSOMES” (ZONEONE PHARMA, INC., priority 2013, published 2014):

Assays:
[1] = Remote loading of carfilzomib precipitate into liposomes (drug and lipid by HPLC after purification); assay type: physicochemical
[2] = unencapsulated drug; Yang et al 2011; cited from earlier work
[3] = 250 mM ammonium sulfate liposomes, drug added at 200 g drug/mol HSPC
[4] = input drug/HSPC 91.8 g/mol, [(NH4)2SO4] 250 mM
[5] = input drug/HSPC 167.3 g/mol, [(NH4)2SO4] 250 mM
[6] = input drug/HSPC 251.8 g/mol, [(NH4)2SO4] 250 mM
[7] = input drug/HSPC 338.1 g/mol, [(NH4)2SO4] 250 mM
[8] = input drug/HSPC 432.8 g/mol, [(NH4)2SO4] 250 mM
[9] = input drug/HSPC 450.6 g/mol, [(NH4)2SO4] 500 mM
[10] = input drug/HSPC 545.9 g/mol, [(NH4)2SO4] 500 mM
[11] = input drug/HSPC 639.2 g/mol, [(NH4)2SO4] 500 mM
[12] = input drug/HSPC 639.2 g/mol, [(NH4)2SO4] 500 mM, listed as Carfilzomib
[13] = input drug/HSPC 758.7 g/mol, [(NH4)2SO4] 500 mM
[14] = input drug/HSPC 758.7 g/mol, [(NH4)2SO4] 500 mM, listed as Carfilzomib
[15] = triethylammonium sulfate gradient, input 650 g drug/mol HSPC, at 30 min

final drug to lipid ratio [1, 3]: 136.9±7.35 g drug/mol of HSPC | loading efficiency [1, 3]: 67.94±3.67% | loading efficiency ([1]; DMSO 1% and above (up to 10% v/v), input 200 ug/umol, ammonium sulfate liposomes): 74-94% | loading ([1]; DMSO absent): practically no loading | final drug load ([1]; control liposomes with 250 mM sodium sulfate (no gradient), drug added at 200 g drug/mol HSPC): 29.01±0.79 g drug/mol of HSPC | effect of time between precipitate formation and loading on loading efficiency ([1]; delay up to 12 h): does not have a significant impact | efficiency of remote loading ([1]; drug added as solid powder, 65 C for 30 min, 100 g drug/mol HSPC): 3.88%±0.053% | efficiency of remote loading ([1]; drug added as solid powder, 65 C for 120 min, 100 g drug/mol HSPC): 3.47%±0.030% | Drug payload/carrier weight ratio [1, 4]: 0.07 g drug/g total lipid | Output drug/HSPC [1, 4]: 83.5 g/mol | efficiency [1, 4]: 90.9% | Drug payload/carrier weight ratio [1, 5]: 0.11 g drug/g total lipid | Output drug/HSPC [1, 5]: 127.2 g/mol | efficiency [1, 5]: 76.0% | Drug payload/carrier weight ratio [1, 6]: 0.15 g drug/g total lipid | Output drug/HSPC [1, 6]: 174.1 g/mol | efficiency [1, 6]: 69.1% | Drug payload/carrier weight ratio [1, 7]: 0.18 g drug/g total lipid | Output drug/HSPC [1, 7]: 210.7 g/mol | efficiency [1, 7]: 62.3% | Drug payload/carrier weight ratio [1, 8]: 0.20 g drug/g total lipid | Output drug/HSPC [1, 8]: 240.5 g/mol | efficiency [1, 8]: 55.6% | Drug payload/carrier weight ratio [1, 9]: 0.29 g drug/g total lipid | Output drug/HSPC [1, 9]: 345.2 g/mol | efficiency [1, 9]: 76.6% | Drug payload/carrier weight ratio [1, 10]: 0.32 g drug/g total lipid | Output drug/HSPC [1, 10]: 380.9 g/mol | efficiency [1, 10]: 69.8% | Drug payload/carrier weight ratio [1, 11]: 0.37 g drug/g total lipid | Output drug/HSPC [1, 11]: 440 ± 10.2 g/mol | efficiency [1, 11]: 68.7±4.80% | Output drug/HSPC [1, 12]: 438.9 g/mol | efficiency [1, 12]: 68.7% | Drug payload/carrier weight ratio [1, 13]: 0.4 g drug/g total lipid | Output drug/HSPC [1, 13]: 469 ± 4.9 g/mol | efficiency [1, 13]: 61.7±1.2% | Drug payload/carrier weight ratio [1, 14]: 0.40 g drug/g total lipid | Output drug/HSPC [1, 14]: 468.2 g/mol | efficiency [1, 14]: 61.7% | efficiency of remote loading ([1]; room temperature, 3 POPC/2 Chol/0.15 PEG-DSPE liposomes, 187 g drug/mol): 100.52%±1.01% | efficiency of remote loading ([1]; room temperature, 95 PChemsPC/5 PEG-DSPE liposomes, 100 g drug/mol PChemsPC): 95.5%±1.23% | efficiency of remote loading ([1]; trapping agent mellitic acid, 100 g drug/mol HSPC): 37.4%±2.01% | efficiency of remote loading ([1]; trapping agent napthelenedisulfonic acid, 100 g drug/mol HSPC): 95.1%±1.76% | efficiency [1, 15]: 65.9±1.98% | greatest payload achieved [1, 15]: 440±12.6 g drug/mol HSPC
SMILES: CC(C)C[C@H](NC(=O)[C@H](CCc1ccccc1)NC(=O)CN1CCOCC1)C(=O)N[C@@H](Cc1ccccc1)C(=O)N[C@@H](CC(C)C)C(=O)[C@@]1(C)CO1 [carfilzomib]
t1/2 in the blood stream [2]: < 20 min
